The source of these data is a melting point compilation (Tetko et al.; mined from patent text by program, amines drawn as free bases though some values may be those of a salt).

A value given as a limit tells only on which side of the number the result lay.

Turning to `O=C1/C(=C(\NC2CC2)c2ccccc2)Sc2ccccc21`, the melting point (commonly the temperature of the solid-liquid transition) lay in the range of 131 to 132 °C.

`CNC(=O)CONC(=O)c1cc(Br)cc(Br)c1NC(=O)c1cc(Br)nn1-c1ncccc1Cl` displayed a melting point of 220 to 221 °C.

`CC(=O)Oc1c(C(C)(C)C)cc(N(C)c2ccn(-c3ccccc3)n2)cc1C(C)(C)C`: the melting point lay within 102 to 103 °C.

Consider `C#Cc1cnc2sc(S(=O)(=O)CCCCCCC)nn2c1=O`, for which the melting point lay in the range of 180 to 182 °C.

Take `COC(=O)CCc1cccc(-n2c(C)nn(-c3ccc(C#N)cc3)c2=O)c1`: the melting point lay within 134 to 137 °C.

The molecule `COc1cc(OC)c(C(=O)CC(=O)c2cc(OC)c(OC)cc2OC)cc1OC` displayed a melting point of 173 to 176 °C.

With `N#Cc1cnc2cc(F)ccc2c1O`, the melting point is over 250 °C.

`CN1C(=O)CC[C@]2(C)c3ccc(-c4ccc5c(c4)C(=O)C(=O)N5)cc3CC[C@@H]12`: the melting point was over 250 °C.

In the case of `Cc1ccc(Br)cc1-n1nc(-c2ccc(O)cc2O)c2ccc(O)cc21`, the melting point was in the range of 88 to 91 °C.

`O=C(O)CCCn1c(=O)n2n(c1=O)C(C(=O)O)C=CC2` (centres undefined) gave a melting point of 130 °C.

As to `O=S(=O)(c1ccc2c(Cl)cnc(Cl)c2c1)N1CCC[C@@H]1CO`, the melting point worked out at 168 °C.

In turn, `O=c1nc(NO)ccn1C1OC(CO)C(O)C1O` (centres undefined) had a melting point of 173 to 176 °C.

`CCOC(=O)COc1ccc2cc(Br)ccc2c1Cl` came in with a melting point of 92 to 94 °C.

`COC(C)=CC(=O)Nc1cccc(NC(C)=O)c1` displayed a melting point of 167 °C.

`Nc1noc2cccc(OCCBr)c12` showed a melting point of 105 to 107 °C.

In turn, `CC[Si](C)(C)CCCCCCCCC1=C(O)C(=O)c2ccccc2C1=O` showed a melting point of 39 to 41 °C.

On to `CCOC(=O)c1nc(NCC(c2ccccc2)c2ccccc2)c2ncn([C@@H]3O[C@H](CO)[C@@H](O)[C@H]3O)c2n1`, for which the melting point lay within 118 to 120 °C.

In turn, `c1ccc2c(CN3CCN(Cc4ccc5c(c4)OCO5)CC3)n[nH]c2c1` had a melting point of 175 to 176 °C.

The molecule `Cc1c(O[Si](C)(C)C(C)(C)C)cc(O[Si](C)(C)C(C)(C)C)c(C)c1C(=O)OCc1ccc([N+](=O)[O-])cc1` yielded a melting point of 121 to 122 °C.

`CC(C)Oc1ccccc1C1(OCC(=O)O)C(=O)Nc2ccc(Cl)cc21` (centres undefined) yielded a melting point of 225 to 228 °C.

`c1nnc2c3c(c(NCCN4CCCC4)nn12)CCCC3` showed a melting point of 160 to 162 °C.

`COCCOC(=O)N=NC(=O)OCCOC`: the melting point lay within 39.9 to 40.4 °C.

For `CN1C(=O)CC[C@]2(C)c3ccc(C(=O)OC(c4ccccc4)c4ccccc4)cc3CC[C@@H]12`, the melting point fell in the range of 130 to 131 °C.

The molecule `Clc1ccc(/C=C/C2=CCN(Cc3ccccc3)CC2)cc1` showed a melting point of 123 to 125 °C.

In turn, `COc1cccn(C2c3cc(S(=O)(=O)C(F)(F)F)ccc3OC(C)(C)C2O)c1=O` (centres undefined) came in with a melting point of 223 to 225 °C.

In turn, `CC(=O)Nc1sc([N+](=O)[O-])cc1C(=O)O` returned a melting point of 238 to 240 °C.

The molecule `N#Cc1ccc(OCCCCCOc2cccc(-c3cc4cc(C#N)ccc4o3)c2)cc1` had a melting point of 142 to 145 °C.

Molecule `COCCc1nc2c(N)nc3ccccc3c2n1CCCCCCCCNC(=O)Nc1ccccc1` had a melting point of 136 to 142 °C.

With `COC(=O)/C(C#N)=C/c1cc(OC)c(OCCCl)cc1[N+](=O)[O-]`, the melting point lay within 157 to 160 °C.

Molecule `O=c1[nH][nH]c(C(F)(F)F)c1Cc1ccc2ccccc2c1` yielded a melting point of 165 to 167 °C.

Consider `CC(C)(CC(O)(Cn1ccc2c1CCCC2=O)C(F)(F)F)c1cc(-c2cncnc2)cc2c1OCC2` (centres undefined), for which the melting point fell in the range of 213 to 214 °C.

`Cc1oc(-c2ccccc2)nc1COc1ccc(CON=C(CCCCCCC(=O)O)c2ccccc2)cc1` came in with a melting point of 88 to 89 °C.

The molecule `COc1ccc(Br)c(C=O)c1OC` came in with a melting point of 92 to 93 °C.

`COCOc1ccccc1-c1cc(-c2ccc(OC)c(C(=O)OC)c2)c(C#N)c(NC(=O)c2cccs2)n1` yielded a melting point of 105 to 106 °C.

`COc1ccccc1C(=O)c1sc(NCCc2ccc(Cl)cc2)nc1N` returned a melting point of 150 to 151 °C.

Take `CCN1CC(C)=CC2=C1N1CN(OC)C=C1N=N2`: the melting point fell in the range of 202 to 203 °C.

As to `CCOC(=O)C(O)=Cc1ccc(S(=O)c2ccc(F)cc2)cn1` (centres undefined), the melting point lay in the range of 148 to 150 °C.

As to `O=C1c2ccccc2C(=O)N1CCCC=NNc1ccc(S(=O)(=O)Nc2ccccc2)cc1`, the melting point fell in the range of 126 to 129 °C.

`O=S(=O)(Nc1cccc(CCOCc2csc(-c3ccccc3)n2)c1)C(F)(F)F`: the melting point fell in the range of 112 to 113 °C.

Take `ONC1CCn2c1cc1ccccc12` (centres undefined): the melting point lay in the range of 159 to 161 °C.

`COc1cc2[nH]c(S(=O)Cc3nccc(N4CCOCC4)c3F)nc2cc1C` (centres undefined) came in with a melting point of 185 to 186 °C.

Take `O=c1nc(-c2ccc(O)cc2)oc2ccccc12`: the melting point was in the range of 273 to 275 °C.

On to `N#CC(C#N)=C1c2ccsc2-c2c1cc([N+](=O)[O-])cc2[N+](=O)[O-]`, for which the melting point is 244 to 246 °C.

Take `CC(=O)NC1CCc2c([nH]c3ccccc23)C1` (centres undefined): the melting point fell in the range of 203 to 206 °C.

`COc1ccc(Cl)cc1NC(=O)CN1CCN(CC(=O)N2CC=C(c3cccc(C(F)(F)F)c3)n3ncc(C#N)c32)CC1` displayed a melting point of 166 to 168 °C.

`CCN(CCCCc1coc2c(OC)cccc12)C1COc2c(F)ccc(C(N)=O)c2C1` (centres undefined) came in with a melting point of 112 to 118 °C.

For `O=CC1c2ccccc2C(C=O)c2ccccc21` (centres undefined), the melting point fell in the range of 132 to 135 °C.

For `N#Cc1c(N2CCCCC2)[nH]c2cccnc12`, the melting point lay in the range of 241 to 242 °C.

`O=C(O)c1cc(NS(=O)(=O)c2ccc([N+](=O)[O-])cc2)ccc1O` showed a melting point of 239 to 240 °C.

`O=C1NC2COc3cc4c(cc3C2c2ccsc21)OCO4` (centres undefined) displayed a melting point of over 250 °C.

As to `COc1ccc(S(=O)(=O)C2(C(=O)O)CCN(Cc3ccc(OCCN4CCCCC4)cc3)CC2)cc1`, the melting point came to 114 °C.

As to `O=C1N(CC2COCCO2)c2ccccc2C12COc1cc3c(cc12)OCCO3` (centres undefined), the melting point was in the range of 198 to 199 °C.

With `Cc1cc(Cl)ccc1OCC(=O)N1CCSC1C(=O)O` (centres undefined), the melting point lay within 147 to 148 °C.

On to `O=C1NC(=O)C(c2cccc(C(F)(F)F)c2)O1` (centres undefined), for which the melting point was 93 to 96 °C.

In turn, `Cc1nc2ccc(S(=O)(=O)n3c(CCCC(=O)O)cc4cc(C(F)(F)F)ccc43)cc2o1` had a melting point of 214 to 220 °C.

Molecule `CSc1c2c3c(n1C)C(=O)C(=O)C(Cl)=C3NCC2` registered a melting point of 205 °C.

Molecule `O=C(c1cccnc1)N1N=CCC1c1ccccc1` (centres undefined) returned a melting point of 100 to 102 °C.

In the case of `CCCCCCCCCOc1cc([N+](=O)[O-])ccc1N`, the melting point lay in the range of 74 to 75 °C.

The molecule `CN(C)c1cccc(-c2ccc3c(C(N)=O)nn(-c4ccc(S(N)(=O)=O)cc4)c3c2)c1` returned a melting point of 237 to 238 °C.

As to `CC(C)(C)c1onc(NC(=O)C2CC2)c1Cl`, the melting point was in the range of 130 to 131 °C.

`COc1ccc(Cn2c(N)c(NC(=O)C(C)C)c(=O)[nH]c2=S)cc1OCc1ccccc1`: the melting point lay in the range of 240 to 244 °C.

On to `CCCCCC(CC(=O)Nc1cc(CCCNC(N)=O)ccc1C(C)(C)C)c1ccc(OC)cc1OC` (centres undefined), for which the melting point was 125 °C.

Molecule `CC(=O)c1c(C)cc(NC(C)(C)C)nc1NC(C)(C)C` registered a melting point of 127 to 128 °C.

Consider `COC(=O)NC1=NC(c2cccc3ccccc23)CN1` (centres undefined), for which the melting point was in the range of 208 to 209 °C.

Turning to `CC1=C(C(N)=O)C(c2ccccc2)(N2CCN(c3ccc(F)cc3C)CC2)NO1` (centres undefined), the melting point was 139 to 141 °C.

`COc1cccc(Oc2ccc([N+](=O)[O-])cc2C#N)c1` came in with a melting point of 102 to 104 °C.

Molecule `C=CCN1C(=O)C(C)(C)c2ccc(-c3nc4ccccc4[nH]3)cc21` came in with a melting point of 197 to 200 °C.

In the case of `Cc1nc(O)c(-c2ccccc2)s1`, the melting point fell in the range of 208 to 211 °C.

`CN(Cc1ccc2cc(NS(C)(=O)=O)ccc2n1)C1Cc2ccc(NS(C)(=O)=O)cc2C1` (centres undefined) gave a melting point of 189 to 191 °C.

`Brc1ccc(C2=NOCCS2)cc1` had a melting point of 114 to 115 °C.

For `O=c1ccn(-c2cccc(C(F)(F)F)c2)nc1-c1cn(C(c2ccccc2)(c2ccccc2)c2ccccc2)nc1-c1ccccc1`, the melting point lay within 216 to 218 °C.

`CC(C#N)(C(=O)NC1CCCCC1)c1ccccc1` (centres undefined) came in with a melting point of 76 to 78 °C.

In turn, `O=C(Cc1ccc2[nH]cc(CCN3C(=O)c4ccccc4C3=O)c2c1)NC1CCCCC1` had a melting point of 175 to 176 °C.

`CCCCCS(=O)(=O)NC(=O)/C=C/c1cc(OCC2(C)COC2)nn1Cc1ccc(C(F)(F)F)cc1Cl`: the melting point is 144 to 147 °C.

`C=Cc1cc(OC)cc2cc(-c3ccc(OC)cc3)oc12` showed a melting point of 182 to 184 °C.

Turning to `O=C(O)Cc1ccc(-n2sc3ccccc3c2=O)cc1`, the melting point was 173 to 175 °C.

Take `CCC(CC)NC(=O)c1ccc(-c2scc(Br)c2CC(=O)OC)cc1`: the melting point fell in the range of 97 to 98 °C.

Take `OC(c1ccc(Cl)cc1)(c1ccc(Cl)cc1)c1ccns1`: the melting point fell in the range of 118 to 120 °C.

With `CCC(O)(c1ccc(O)cc1)c1ccc(Cl)cc1` (centres undefined), the melting point was 148 to 149 °C.

`Cc1noc2cc3c(cc12)C1(CO3)C(=O)N(Cc2ccccc2C(F)(F)F)c2ccccc21` (centres undefined) registered a melting point of 192 to 194 °C.

In the case of `Cc1ccc(C)n1Nc1ccc(N2CC(C)OC(C)C2)nn1` (centres undefined), the melting point was 147 to 148 °C.

As to `Cn1c(=S)c(C(=O)C2=C(O)CCCC2=O)nc2ccccc21`, the melting point was over 300 °C.

`COc1ccc(-c2csc(N)n2)cc1OC` showed a melting point of 198 to 201 °C.

With `COc1cc(Nc2nccc(-c3sc(Nc4ccccc4)nc3C)n2)cc(OC)c1`, the melting point fell in the range of 191 to 194 °C.

Consider `CC(=O)OCC1OC(c2ccc(F)c(Cc3ccc(Br)s3)c2)C(OC(C)=O)C(OC(C)=O)C1OC(C)=O` (centres undefined), for which the melting point lay in the range of 127 to 129 °C.

On to `Nc1nc2ccc3cc(Br)c([N+](=O)[O-])cc3c2c(=O)[nH]1`, for which the melting point was over 250 °C.

`COC(=O)C(=O)c1ccc(OCCOc2ccnc3ccccc23)cc1` came in with a melting point of 135 to 136 °C.

As for `O=C(Nc1nnc(-c2ccc(Cl)cc2)s1)c1c(Cl)cccc1Cl`, the melting point was over 260 °C.

`Cc1c(C#N)c(N)nc(Cl)c1C#N`: the melting point turned out to be 210 °C.
